# Measured values published in patent publication US10189853B2, “Conformationally restricted 4-substituted-2,6-dimethylfuro[2,3-d]pyrimidines as anti-tumor agents” (DUQUESNE UNIVERSITY OF THE HOLY SPIRIT, priority 2014, dated 2019).
# How the values were obtained:
# [1] = target: EGFR (Homo sapiens (Human), UniProt P00533); test: EGFR kinase inhibition, phosphotyrosine ELISA cytoblot; type: cell-based; details: A431 cells
# Method: (§1) Cells used were tumor cell lines naturally expressing high levels of EGFR (A431), VEGFR-2 (U251), and PDGFR-β (SH-SYSY). […] The reaction was stopped and cells were permeabilized by quickly removing the media from the cells and adding ice-cold Tris-buffered saline (TBS) containing 0.05% Triton X-100, protease inhibitor cocktail and tyrosine phosphatase inhibitor cocktail. The TBS solution was then removed and cells fixed to the plate for 30 min at 60° C. and further incubation in 70% ethanol for an additional 30 min. Cells were further exposed to block (TBS with 1% BSA) for 1 h, washed, and then a horseradish peroxidase (HRP)-conjugated phosphotyrosine (PY) antibody was added overnight.
# [2] = target: VEGFR-2 (Homo sapiens (Human), UniProt P35968); test: VEGFR-2 kinase inhibition, phosphotyrosine ELISA cytoblot; type: cell-based
# Method: as §1
# [3] = test system: A431 cancer cells; test: A431 cytotoxicity (cell proliferation); type: cell-based, human; details: Homo sapiens, A-431
# [4] = test system: cellular microtubules in A-10 cells; test: Microtubule depolymerization, indirect immunofluorescence; type: cell-based
# Method: Evaluation of microtubule inhibition was performed using previously described methods.^22 Indirect immunofluorescence was used to evaluate the effects of the compounds on cellular microtubules as described previously.^38 Briefly, A-10 cells were treated for 18 h with vehicle (DMSO) or a compound, and microtubule effects were evaluated microscopically using β-tubulin antibody. The EC50 was calculated from 3 independent experiments and expressed as the mean±SD.
# [5] = test system: MDA-435 cells; test: Antiproliferative SRB assay; type: cell-based; details: MDA435, 48 h, read-out: IC50 ± SD in MDA-435 cells
# [6] = test system: SKOV3 cells; test: Antiproliferative SRB assay; type: cell-based; details: Homo sapiens, SK-OV-3, 48 h, read-out: IC50 ± SD in SKOV3 cells
# [7] = test system: EKVX; test: NCI 60 cell line panel; type: cell-based; details: Homo sapiens, NSCLC
# [8] = test system: HOP-62; test: NCI 60 cell line panel; type: cell-based; details: Homo sapiens, NSCLC
# [9] = test system: HOP-92; test: NCI 60 cell line panel; type: cell-based; details: Homo sapiens, NSCLC
# [10] = test system: NCI-H226; test: NCI 60 cell line panel; type: cell-based; details: Homo sapiens, NSCLC
# [11] = test system: NCI-H23; test: NCI 60 cell line panel; type: cell-based; details: Homo sapiens, NSCLC
# [12] = test system: NCI-H460; test: NCI 60 cell line panel; type: cell-based; details: Homo sapiens, NSCLC
# [13] = test system: SF-268; test: NCI 60 cell line panel; type: cell-based; details: Homo sapiens, CNS Cancer
# [14] = test system: SF-539; test: NCI 60 cell line panel; type: cell-based; details: Homo sapiens, CNS Cancer
# [15] = test system: SNB-19; test: NCI 60 cell line panel; type: cell-based; details: Homo sapiens, CNS Cancer
# [16] = test system: SNB-75; test: NCI 60 cell line panel; type: cell-based; details: Homo sapiens, CNS Cancer
# [17] = test system: U251; test: NCI 60 cell line panel; type: cell-based; details: Homo sapiens, U-251, CNS Cancer
# [18] = test system: IGROV1; test: NCI 60 cell line panel; type: cell-based; details: Homo sapiens, IGROV-1, Ovarian cancer
# [19] = test system: OVCAR-3; test: NCI 60 cell line panel; type: cell-based; details: Homo sapiens, Ovarian cancer
# [20] = test system: OVCAR-4; test: NCI 60 cell line panel; type: cell-based; details: Homo sapiens, Ovarian cancer
# [21] = test system: OVCAR-5; test: NCI 60 cell line panel; type: cell-based; details: Homo sapiens, Ovarian cancer
# [22] = test system: OVCAR-8; test: NCI 60 cell line panel; type: cell-based; details: Homo sapiens, Ovarian cancer
# [23] = test system: NCI/ADR-RES; test: NCI 60 cell line panel; type: cell-based; details: Homo sapiens, Ovarian cancer
# [24] = test system: SK-OV-3; test: NCI 60 cell line panel; type: cell-based; details: Homo sapiens, Ovarian cancer
# [25] = test system: LOX IMVI; test: NCI 60 cell line panel; type: cell-based; details: Homo sapiens, Melanoma
# [26] = test system: M14; test: NCI 60 cell line panel; type: cell-based; details: Homo sapiens, Melanoma
# [27] = test system: MDA-MB-435; test: NCI 60 cell line panel; type: cell-based; details: Homo sapiens, Melanoma
# [28] = test system: SK-MEL-5; test: NCI 60 cell line panel; type: cell-based; details: Homo sapiens, Melanoma
# [29] = test system: UACC-62; test: NCI 60 cell line panel; type: cell-based; details: Homo sapiens, Melanoma
# [30] = test system: 786-0; test: NCI 60 cell line panel; type: cell-based; details: Homo sapiens
# [31] = test system: ACHN; test: NCI 60 cell line panel; type: cell-based; details: Homo sapiens, Renal Cancer
# [32] = test system: CAKI-1; test: NCI 60 cell line panel; type: cell-based; details: Homo sapiens, Renal Cancer
# [33] = test system: RXF 393; test: NCI 60 cell line panel; type: cell-based; details: Homo sapiens, Renal Cancer
# [34] = test system: SN 12C; test: NCI 60 cell line panel; type: cell-based; details: Homo sapiens, SN12C, Renal Cancer
# [35] = test system: TK-10; test: NCI 60 cell line panel; type: cell-based; details: Homo sapiens, Renal Cancer
# [36] = test system: UO-31; test: NCI 60 cell line panel; type: cell-based; details: Homo sapiens, Renal Cancer
# [37] = test system: COLO 205; test: NCI 60 cell line panel; type: cell-based; details: Homo sapiens, Colon Cancer
# [38] = test system: HCC-2998; test: NCI 60 cell line panel; type: cell-based; details: Homo sapiens, Colon Cancer
# [39] = test system: HCT-15; test: NCI 60 cell line panel; type: cell-based; details: Homo sapiens, Colon Cancer
# [40] = test system: HT29; test: NCI 60 cell line panel; type: cell-based; details: Homo sapiens, HT-29, Colon Cancer
# [41] = test system: KM12; test: NCI 60 cell line panel; type: cell-based; details: Homo sapiens, Colon Cancer
# [42] = test system: SW-620; test: NCI 60 cell line panel; type: cell-based; details: Homo sapiens, Colon Cancer
# [43] = test system: PC-3; test: NCI 60 cell line panel; type: cell-based; details: Homo sapiens, Prostate Cancer
# [44] = test system: DU-145; test: NCI 60 cell line panel; type: cell-based; details: Homo sapiens, Prostate Cancer
# [45] = test system: MCF7; test: NCI 60 cell line panel; type: cell-based; details: Homo sapiens, Breast Cancer
# [46] = test system: MDA-MB-231/ATCC; test: NCI 60 cell line panel; type: cell-based; details: Homo sapiens, Breast Cancer
# [47] = test system: BT-549; test: NCI 60 cell line panel; type: cell-based; details: Homo sapiens
# [48] = test system: MDA-MB-468; test: NCI 60 cell line panel; type: cell-based; details: Homo sapiens, Breast Cancer
# [49] = test system: CCRF-CEM; test: NCI 60 cell line panel; type: cell-based; details: Homo sapiens, Leukemia
# [50] = test system: HL-60(TB); test: NCI 60 cell line panel; type: cell-based; details: Homo sapiens, Leukemia
# [51] = test system: K-562; test: NCI 60 cell line panel; type: cell-based; details: Homo sapiens, K562, Leukemia
# Chain of VEGFR-2 (P35968 20-1356): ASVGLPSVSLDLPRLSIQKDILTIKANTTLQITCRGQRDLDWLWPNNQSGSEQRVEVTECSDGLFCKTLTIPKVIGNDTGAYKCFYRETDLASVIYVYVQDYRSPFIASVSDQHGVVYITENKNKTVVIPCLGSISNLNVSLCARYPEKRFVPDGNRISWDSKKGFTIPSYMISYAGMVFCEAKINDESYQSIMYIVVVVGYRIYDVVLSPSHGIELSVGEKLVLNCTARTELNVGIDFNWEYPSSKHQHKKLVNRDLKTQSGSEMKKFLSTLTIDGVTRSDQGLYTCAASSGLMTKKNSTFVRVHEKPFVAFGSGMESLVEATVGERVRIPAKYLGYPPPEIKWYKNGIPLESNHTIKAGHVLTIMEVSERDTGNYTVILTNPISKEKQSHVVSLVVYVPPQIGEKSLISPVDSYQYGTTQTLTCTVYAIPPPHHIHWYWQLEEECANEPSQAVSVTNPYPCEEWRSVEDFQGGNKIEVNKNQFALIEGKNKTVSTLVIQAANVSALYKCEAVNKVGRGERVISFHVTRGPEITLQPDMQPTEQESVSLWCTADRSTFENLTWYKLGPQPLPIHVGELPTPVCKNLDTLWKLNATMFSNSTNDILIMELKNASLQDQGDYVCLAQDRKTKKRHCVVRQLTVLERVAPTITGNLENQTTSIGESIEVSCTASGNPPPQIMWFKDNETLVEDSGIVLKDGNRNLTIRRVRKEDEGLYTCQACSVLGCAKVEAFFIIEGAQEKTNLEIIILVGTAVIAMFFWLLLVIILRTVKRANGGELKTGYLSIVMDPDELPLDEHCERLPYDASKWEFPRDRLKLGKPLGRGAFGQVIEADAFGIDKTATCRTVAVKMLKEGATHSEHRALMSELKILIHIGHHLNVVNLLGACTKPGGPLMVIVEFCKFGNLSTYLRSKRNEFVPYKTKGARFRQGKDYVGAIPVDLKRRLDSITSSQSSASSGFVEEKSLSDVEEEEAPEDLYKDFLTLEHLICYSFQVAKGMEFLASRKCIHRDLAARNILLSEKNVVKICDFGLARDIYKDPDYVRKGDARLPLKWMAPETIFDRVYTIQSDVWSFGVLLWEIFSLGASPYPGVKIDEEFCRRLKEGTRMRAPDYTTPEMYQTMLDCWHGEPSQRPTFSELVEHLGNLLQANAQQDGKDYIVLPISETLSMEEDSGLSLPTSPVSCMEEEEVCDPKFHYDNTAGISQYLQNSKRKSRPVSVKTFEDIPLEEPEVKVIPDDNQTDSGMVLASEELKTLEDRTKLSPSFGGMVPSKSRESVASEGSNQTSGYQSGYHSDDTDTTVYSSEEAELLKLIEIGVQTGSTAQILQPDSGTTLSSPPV
# Chain of EGFR (P00533 25-1210): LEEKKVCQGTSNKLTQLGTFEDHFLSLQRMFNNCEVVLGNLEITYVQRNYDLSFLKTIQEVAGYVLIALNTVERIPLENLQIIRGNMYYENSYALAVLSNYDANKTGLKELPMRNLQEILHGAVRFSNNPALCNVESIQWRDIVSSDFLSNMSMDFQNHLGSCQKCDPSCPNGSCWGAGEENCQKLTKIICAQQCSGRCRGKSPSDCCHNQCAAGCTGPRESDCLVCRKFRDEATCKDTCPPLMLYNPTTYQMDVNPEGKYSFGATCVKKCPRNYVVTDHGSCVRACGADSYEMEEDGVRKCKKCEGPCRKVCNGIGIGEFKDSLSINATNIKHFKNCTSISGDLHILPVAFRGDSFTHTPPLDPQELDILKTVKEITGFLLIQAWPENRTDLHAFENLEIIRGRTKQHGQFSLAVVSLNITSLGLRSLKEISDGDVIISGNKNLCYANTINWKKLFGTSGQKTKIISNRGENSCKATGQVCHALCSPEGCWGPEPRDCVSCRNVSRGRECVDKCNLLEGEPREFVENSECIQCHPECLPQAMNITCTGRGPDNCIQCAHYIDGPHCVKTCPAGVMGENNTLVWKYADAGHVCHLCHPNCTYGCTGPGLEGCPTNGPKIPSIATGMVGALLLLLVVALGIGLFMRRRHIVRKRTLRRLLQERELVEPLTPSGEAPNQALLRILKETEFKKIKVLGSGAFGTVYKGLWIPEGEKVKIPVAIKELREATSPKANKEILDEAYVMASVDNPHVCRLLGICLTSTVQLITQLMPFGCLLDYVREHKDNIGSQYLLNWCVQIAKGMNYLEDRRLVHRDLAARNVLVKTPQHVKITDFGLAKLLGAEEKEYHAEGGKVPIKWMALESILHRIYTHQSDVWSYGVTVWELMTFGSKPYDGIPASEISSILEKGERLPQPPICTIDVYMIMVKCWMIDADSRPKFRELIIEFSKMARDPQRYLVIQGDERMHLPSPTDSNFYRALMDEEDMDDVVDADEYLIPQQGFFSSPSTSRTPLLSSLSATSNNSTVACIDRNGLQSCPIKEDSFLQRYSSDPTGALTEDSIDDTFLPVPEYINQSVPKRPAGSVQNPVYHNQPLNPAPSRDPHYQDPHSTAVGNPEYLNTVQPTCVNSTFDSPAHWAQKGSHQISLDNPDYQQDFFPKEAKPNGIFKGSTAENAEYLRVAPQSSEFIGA
structure (smiles),measurement,setting,value
"Cc1nc(N(C)c2ccc3occc3c2)c2cc(C)oc2n1 [Compound 7, N-1-benzofuran-5-yl-N,2,6-trimethylfuro[2,3-d]pyrimidin-4-amine]",IC50,[1],0.307 ± 0.0421 µM
same,IC50,"[2]; U251 cells, phosphotyrosine ELISA",0.0058 ± 0.00073 µM
same,"fold better than sunitinib, VEGFR-2",[2]; vs sunitinib,3 fold
same,IC50,[3],0.0732 ± 0.0101 µM
same,EC50/IC50 ratio,[4]; EC50 MT depolymerization / IC50 MDA-435,28
same,effect on cellular microtubules,[4]; in words,dose-dependent loss of cellular microtubules
same,IC50,[5],0.133 ± 0.0017 µM
same,IC50,[6],0.425 ± 0.0531 µM
same,GI50,[7],0.396 µM
same,GI50,[8],0.0752 µM
same,GI50,[9],0.226 µM
same,GI50,[10],0.217 µM
same,GI50,[11],0.206 µM
same,GI50,[12],0.138 µM
same,GI50,[13],0.527 µM
same,GI50,[14],0.0609 µM
same,GI50,[15],0.0936 µM
same,GI50,[16],0.103 µM
same,GI50,[17],0.084 µM
same,GI50,[18],0.142 µM
same,GI50,[19],0.03 µM
same,GI50,[20],0.553 µM
same,GI50,[21],0.531 µM
same,GI50,[22],0.33 µM
same,GI50,[23],0.0376 µM
same,GI50,[24],0.098 µM
same,GI50,[25],0.162 µM
same,GI50,[26],0.0473 µM
same,GI50,[27],0.0211 µM
same,GI50,[28],0.0504 µM
same,GI50,[29],0.0571 µM
same,GI50,[30],1.04 µM
same,GI50,[31],0.265 µM
same,GI50,[32],0.0579 µM
same,GI50,[33],0.0572 µM
same,GI50,[34],0.611 µM
same,GI50,[35],0.382 µM
same,GI50,[36],0.278 µM
same,GI50,[37],0.139 µM
same,GI50,[38],0.185 µM
same,GI50,[39],0.0519 µM
same,GI50,[40],0.0519 µM
same,GI50,[41],0.0584 µM
same,GI50,[42],0.0588 µM
same,GI50,[43],0.183 µM
same,GI50,[44],0.198 µM
same,GI50,[45],0.0438 µM
same,GI50,[46],0.223 µM
same,GI50,[47],0.432 µM
same,GI50,[48],0.0315 µM
same,GI50,[49],0.121 µM
same,GI50,[50],0.0412 µM
same,GI50,[51],0.0404 µM
